Patent publication US12534510B2, “Peptide-receptive MHC-I complex compositions and methods” (priority 2020, dated 2026)

Columns and labels:
[1] = system: B4.2.3 TCR transgenic T cell line; assay: Tetramer staining by flow cytometry; format: cell-based, murine; design: dose or concentration left out as unconfirmed; settings: stoichiometric (1:1) or catalytic (1:100) TAPBPR:MHC ratio
H-2D^d/TAPBPR complex = H-2D^d/TAPBPR complex (Mus musculus, UniProt P01900)
Description: Peptide occupancy of SEC purified MHC-I was determined by HPLC separation on a Higgins PROTO300 C4 column (5 μm, 100 mm×21 mm) followed by electrospray ionisation performed on a Thermo Finnigan LC/MS/MS (LQT) instrument. Peptides were identified by extracting expected m/z ions from the chromatogram and deconvoluting the resulting spectrum in MagTran.

H-2D^d = H-2D^d (Mus musculus, UniProt P01900); settings: cited from earlier work
H-2L^d/TAPBPR complex = target: T1, H-2L^d/TAPBPR complex (Mus musculus, UniProt P01897); assay: SEC TAPBPR binding assay with LC-MS peptide occupancy; design: species or system murine; settings: 10 mM Gly-Phe dipeptide (GF)
T1 construct: Plasmid DNA encoding the luminal domain of class I MHC (MHC-I) heavy chains H-2D^d, HLA-A*02:01, H-2L^d; made in house; Drosophila S2 for TAPBPR
Description: Complexes were resolved on an Superdex 200 10/300 increase column (GE healthcare) at a flow rate of 0.5 mL/min in 100 mM NaCl and 20 mM sodium phosphate pH 7.2 at room temperature. MHC-I/TAPBPR complexes eluted at 26.5 min.

[2] = target: HLA-A*24:02/TAPBPR complex (Homo sapiens, UniProt P04439, D101N/D140Y/D185E/E176V/E190D/F33S/G103R/G107R/I119L/I121M/I306V/K335N/L105A/L180Q/L300P/N151K/N90K/Q86E/Q94H/R106L/R138H/R89G/T104I/T345S/V100E/W191G/Y123F); assay: Native gel dissociation of MHC-I/TAPBPR complex by peptide; format: biochemical; settings: HLA-A*24:02 refolded with gNEF, 10-fold molar excess peptide
[3] = nanoDSF melting temperatures; format: physicochemical
Description: In a volume of 20 μl, 1 μM peptide deficient HLA-A*02:01/TAPBPR was incubated with 20 μM of various peptides (FIG. 22) in a buffer of 20 mM sodium phosphate pH 7.2, 100 mM NaCl, 0.02% TWEEN-20 for at least one hour. 10 ul of each sample was loaded on the Prometheus NT.48 instrument (NanoTemper™) using the high sensitivity capillaries. NanoDSF™ measurements are performed using a temperature ramp rate of 1° C./min from 25° C. to 95° C. and an LED intensity of 20%. Data was analyzed using the PR Control software (NanoTemper™). Melting temperatures (Tm values) correspond to the inflection points of the first derivative of the 330/350 nm fluorescence ratio. Experiments were performed in duplicates and the shaded areas (FIG. 17b) are representative of the error.

[4] = target: HLA-A*68:02/TAPBPR complex (Homo sapiens, UniProt P04439, A269V/D140Y/D185E/E176V/E277Q/E87N/F33Y/G231S/I121R/I166T/I218V/L180W/L300P/L318F/N151K/P208A/P217A/Q86R/R138H/R169H/S129P/T345S/V36M); assay: Native gel dissociation of MHC-I/TAPBPR complex by peptide; format: biochemical; settings: HLA-A*68:02 refolded with gTAX, 10-fold molar excess peptide

## AGPARAAAL (Sequence is synthesized)
[1]
  tetramer staining: No staining

## GPGRAFVTI [gP18-I10]
H-2D^d/TAPBPR complex
  fate of bound peptide in the presence of TAPBPR: dissociated in the presence of TAPBPR
H-2D^d
  increase in the peptide off-rate relative to full-length P18-I10 peptide: 100 fold

## PNVNIHNF
H-2L^d/TAPBPR complex
  fate of bound peptide in the presence of TAPBPR: remained bound

## QLSPFPFDL [QL9]
H-2L^d/TAPBPR complex
  fate of bound peptide in the presence of TAPBPR: empty H-2L^d/TAPBPR complexes were obtained

## QYNPIRTTF (Sequence is synthesized) [PHOX2B]
[2]
  effect of peptide on MHC-I/TAPBPR complex: complex dissociation

## RYPLTFGWCF (Sequence is synthesized) [Nef134-10]
[2]
  effect of peptide on MHC-I/TAPBPR complex: complex dissociation

## TAPBPR: chaperone protein homologue of Tapasin, luminal domain expressed in Drosophila S2 cells
[3]
  Tm (nanoDSF inflection point): 52.5 °C

## YPNVNIHNF (Sequence is synthesized) [p29, irrelevant, nonspecific peptide used as negative control]
[2]
  effect of peptide on MHC-I/TAPBPR complex: remain bound
[4]
  effect of peptide on MHC-I/TAPBPR complex: remain bound
